Experimental data taken from publication PMC12040169 (PLOS Biology, 2025).

Test: in vitro
Settings: human, hela cells, % viability

| SMILES | viability at 28.5 h, 10 µM [%] | viability at 28.5 h, 10 µM (bulk resorufin, single well) [%] |
| --- | --- | --- |
| CC(C)N1CCC(CNC(=O)c2cc(C3CCCCC3)no2)CC1 [CBK283293] | 98.5 | – |
| O=C(NCCC1=CCCCC1)Nc1ccc(F)c(F)c1F [CBK043265] | 89.3 | – |
| Cn1nc(C(C)(C)C)c2cc(C(=O)N3CCCc4occc4C3)cnc21 [CBK304713] | 97.7 | – |
| Cc1ccc2c(c1)C1(CC(=O)N(C)C1=O)C(=O)N2CCOc1cccc2c1OCCO2 (stereo not drawn) [CBK075529] | 99.6 | – |
| OCC1CCCN1c1nccnc1-c1cccc(O)c1 (stereo not drawn) [CBK089052] | 109 | – |
| Cc1nc(C2CCN(C(=O)CCC3CCCO3)CC2)c2sccn12 (stereo not drawn) [CBK282240] | 106 | – |
| CCNC(=O)Nc1ccc([C@@H](O)[C@H]2COCC(=O)N2CC)cc1 [CBK289696] | 93.5 | – |
| O=C(CSc1nc2sc3c(c2c(=O)[nH]1)CCCC3)NCCN1CCOCC1 [CBK264064] | 111 | – |
| CC(=O)N1CCCN(Cc2c(C(C)C)[nH]c3ncccc23)CC1 [CBK285333] | 103 | – |
| C(#Cc1cccc(-c2nc3ccccc3nc2-c2cccc(C#Cc3ccc(Sc4ccccc4)cc3)c2)c1)c1ccc(Sc2ccccc2)cc1 [CBK261158] | 93.2 | – |
| Cc1ccccc1N1C(=O)/C(=N\Nc2ccc(S(=O)(=O)O)cc2)C(=O)NC1=S [CBK018165] | – | 97.7 |
| O=C(NCc1cccnc1)c1cc2c(ccc3ccccc32)oc1=O [CBK270195] | 95.7 | – |
| O=C(NCc1ccc2c(c1)OCO2)N1CCCC(CO)C1 (stereo not drawn) [CBK156034] | 104 | – |
| Cc1nc2cc(-c3nccn3C)nn2c(N2CCN(c3ccc4c(c3)OCCO4)CC2)c1C [CBK286186] | 90.4 | – |
| COC(=O)[C@H]1CCc2ccccc2N1C(C)=O [CBK284256] | 90.2 | – |
| CC(=O)c1cccc(NC(=O)Cn2ncc(N3CCCC3)c(Cl)c2=O)c1 [CBK304395] | 89.5 | – |
| Cn1c(=O)c2[nH]c(NN=C3C(=O)NC(=O)NC3=O)nc2n(C)c1=O [CBK262891] | – | 103 |
| CN(C)CCN(C)c1cncc(-c2cccc(N(C)C)c2)n1 [CBK065659] | 100 | – |
| O=C(Cn1cnc2ccccc2c1=O)NCCc1ccsc1 [CBK287844] | 92.6 | – |
| Nc1cc2ccccc2c(-c2ccsc2)n1 [CBK085710] | 85.3 | – |
| COc1cccc(C(=O)N2CCC(NC(=O)c3ccccc3C(F)(F)F)CC2)c1 [CBK155024] | 99.4 | – |
| CCN(CC)C(=O)CN1CCC(Oc2cncc(OCC3COc4ccccc4O3)n2)C1 (stereo not drawn) [CBK084374] | 102 | – |

| SMILES | viability at 28.5 h, 10 µM [%] | viability at 28.5 h, 10 µM (bulk resorufin, single well) [%] |
| --- | --- | --- |
| COCC(=O)N1CCN(C(=O)c2cccc(F)c2)C[C@H]1C(=O)OC [CBK289608] | 89.4 | – |
| Cc1cc(COc2nccnc2N2CCN(Cc3ccc([N+](=O)[O-])cc3)CC2)no1 [CBK084189] | 92 | – |
| CC(=O)N1CCC(Cn2nc(-c3ccccc3)ccc2=O)CC1 [CBK282405] | 109 | – |
| O=C(c1cccs1)n1ccc(-c2ccc3c(c2)CCO3)n1 [CBK006090] | 97.6 | – |
| O=c1c2scc(-c3cccc(F)c3)c2ncn1Cc1ccc(F)cc1 [CBK287810] | 100 | – |
| COC(=O)c1c(NC(=S)NCc2cccs2)sc(C)c1-c1ccccc1 [CBK266943] | 97 | – |
| CCCC/C=C/c1nccnc1N[C@@H](CO)C(C)C [CBK037514] | 101 | – |
| CC(CN1CCOCC1)OC(=O)c1ccco1 (stereo not drawn) [CBK264606C] | 92.9 | – |
| CC(C(=O)Nc1ccc2c(c1)OCO2)N(c1ccc(Cl)cc1)S(C)(=O)=O (stereo not drawn) [CBK268595] | 89.5 | – |
| Cc1oc2c(c1C(=O)NCC(=O)NCC(=O)O)CCCC2 [CBK264015] | 97.6 | – |
| CCOC(=O)C(NC(=O)c1cn[nH]c1)c1cccc(C)c1C (stereo not drawn) [CBK304175] | 92.8 | – |
| Cn1c(/N=N/c2c(-c3ccccc3)n(C)c3ccccc23)nc2ccccc21 [CBK262114] | 81.2 | – |
| COc1ccc(-c2cc(=O)oc3cc(OC(C)C(=O)O)ccc23)cc1 (stereo not drawn) [CBK286696] | 105 | – |
| CCN(c1ccc(NC(=O)Cn2nc(C(=O)O)c3ccccc3c2=O)cc1)C(C)C [CBK297734] | 94.5 | – |
| COc1cc(C(=O)N2CCC3(CC2)CC(=O)c2cc(-c4cccnc4)ccc2O3)cc(OC)c1C [CBK169606] | 112 | – |
| Cc1ccc2c(c1)C(C[C@H]1CN(C(=O)c3ccco3)CC[C@H]1CC(=O)O)=NCC2 [CBK289162] | 79.1 | – |
| O=C(OCCC1SC(NC2CC3C=CC2C3)=NC1=O)c1cc(C(F)(F)F)ccc1C(F)(F)F (stereo not drawn) [CBK200058T] | 88.1 | – |
| CC1CCC(N(Cc2nnc(C(C)C)o2)CC2CCCO2)CC1 (stereo not drawn) [CBK305169] | 89.7 | – |
| O=C(NNC1=C(C(=O)C(F)(F)F)CCC1)c1cccnc1 [CBK262459] | 89.1 | – |
| CC(C)Oc1cc(Br)cc(C(=O)N2CCC(C(=O)O)C2)c1 (stereo not drawn) [CBK304268C] | 92.6 | – |
| Cn1c(=O)oc2ccccc2c1=O [CBK015658] | 100 | – |
| CC1=NN(c2ccccc2)C(=O)/C1=C\c1cn(CCC(=O)O)nc1-c1cc2ccccc2o1 [CBK265252] | 88.1 | – |

| SMILES | viability at 28.5 h, 10 µM [%] | viability at 28.5 h, 10 µM (bulk resorufin, single well) [%] |
| --- | --- | --- |
| CCN(CC(=O)NCc1cccnc1)S(=O)(=O)c1ccc2ccccc2c1 [CBK300514] | 108 | – |
| COc1cc(C=O)ccc1OC(=O)c1nsc(Cl)c1Cl [CBK266619] | 89.1 | – |
| COc1ccc(-c2ccccc2)cc1NS(=O)(=O)c1ccc2c(c1)CCC(=O)N2 [CBK286368] | 100 | – |
| CC(C)C(=O)Nc1ccc(Oc2ccc(C(=O)O)c(C(=O)O)c2)cc1 [CBK263463] | 86.4 | – |
| CN(Cc1ccccc1)c1nccnc1-c1ccc(CO)cc1 [CBK038067] | 101 | – |
| O=C(O)CCC(=O)Nc1ccc(Br)c2cccnc12 [CBK265186] | 105 | – |
| Cc1ccc(-c2ncc(OCCC(C)C)nc2N)cc1C [CBK145145] | 90.5 | – |
| C=CCOc1ccc(Cl)cc1CNc1cccc(C(=O)O)c1 [CBK078460] | 96.6 | – |
| Brc1cccc(NN=C2CCCC2)n1 [CBK006748] | 85.3 | – |
| COc1ccc(-c2cc(N3CCN(CCN4CCCC4)CC3)ncn2)cc1OC [CBK091173] | 94.5 | – |
| O=[N+]([O-])c1ccc(OC(CNS(=O)(=O)c2ccc(Cl)cc2)c2ccccc2)cc1 (stereo not drawn) [CBK262817] | 93 | – |
| Cc1cc(C(=O)N2CCC(C(=O)NC(c3ccccc3)c3ccc4ccccc4n3)CC2)no1 (stereo not drawn) [CBK059641] | 100 | – |
| Cn1cc(C(c2ccc(OCC(=O)O)cc2)c2cn(C)c3ccccc23)c2ccccc21 [CBK266403] | 94.5 | – |
| CCC1CCc2c(sc(NC(=O)C3C4CCC(C4=C(C)C)C3C(=O)O)c2C(=O)OC)C1 (stereo not drawn) [CBK265424] | 102 | – |
| CCN(CC(=O)NCc1ccc(Cl)cc1)S(=O)(=O)N1CCCCCC1 [CBK305733] | 110 | – |
| Cc1ccc(S(N)(=O)=O)cc1C(=O)OCC(=O)c1ccccc1 [CBK264588] | 113 | – |
| COc1ccc(-c2noc([C@@H]3C[C@H](NC(=O)c4ccc(F)cc4)CN3C)n2)cc1 [CBK288861] | 118 | – |
| CCOC(=O)c1c(NC(=O)CSc2n[nH]c(N)n2)sc(C)c1C [CBK266412] | 94.4 | – |
| CC(=O)NC(O)C(=O)c1cccs1 (stereo not drawn) [CBK027756] | 111 | – |
| CC(Oc1ccc(Cl)cc1Cl)C(=O)Nc1ccc2oc(-c3ccncc3)nc2c1 (stereo not drawn) [CBK266768] | 109 | – |
| O=C(O)CCn1cc(C=C2C(=O)NC(=S)NC2=O)c(-c2cc3ccccc3oc2=O)n1 [CBK265293] | – | 91.8 |
| Nc1ccc(-c2cn3ccnc3c(NCC3CC3)n2)cc1 [CBK066677] | 101 | – |

| SMILES | viability at 28.5 h, 10 µM [%] | viability at 28.5 h, 10 µM (bulk resorufin, single well) [%] |
| --- | --- | --- |
| Cc1ccc(-c2cc(C(=O)NCc3cnn(C)c3)c3cc(Br)ccc3n2)cc1 [CBK293959] | 89.1 | – |
| COc1ccc(CNC(=O)C(=O)NCc2ccccc2)cc1 [CBK262158] | 103 | – |
| CC1(C)NC(=O)N(CC(O)CNC23CC4CC(CC(C4)C2)C3)C1=O (stereo not drawn) [CBK264823] | 95.5 | – |
| COc1cccc(CN2CCN(S(=O)(=O)c3ccccc3[N+](=O)[O-])CC2)c1OC [CBK264162] | 87.4 | – |
| CC(C)(C)C(=O)Nc1ccc(Cc2ccc(NC(=O)C(C)(C)C)c(C(=O)O)c2)cc1C(=O)O [CBK261393] | 104 | – |
| Cc1noc(C)c1CN1CCC(C(O)c2ccccc2)CC1 (stereo not drawn) [CBK305783] | 93.9 | – |
| Oc1ccc(Oc2ccc(Oc3ccc(O)cc3)cc2)cc1 [CBK033968] | 107 | – |
| COc1cnc(-c2cc(Cl)cc(Cl)c2)c(NC(C)=O)n1 [CBK145333] | 105 | – |
| O=C1NC2(CCCCC2)C(=O)N1c1cccc(Cl)c1 [CBK287969] | 94.3 | – |
| O=C1NC(c2cccnc2)Nc2sc3c(c21)CCCC3 (stereo not drawn) [CBK072377] | 103 | – |
| COC(=O)CCc1ccc(S(=O)(=O)N2CCCN(Cc3cc(F)c(F)c(F)c3)CC2)cc1 [CBK062998] | 103 | – |
| CCN(CC)C(=O)CN1CCN(c2nccnc2OCCN2C(=O)CCC2=O)CC1 [CBK084297] | 102 | – |
| CCNC(=O)NC[C@H]1C[C@@H]2CCN1C[C@@H]2c1cc(-c2ccccc2OC)nn1C [CBK289105] | 118 | – |
| CCOc1ccc(CC(=O)NC[C@H]2CC[C@H](c3cc(C(N)=O)c4ccccc4n3)CC2)cc1 [CBK285899] | 92.2 | – |
| c1ccc2c(c1)CCC[C@H]2Oc1cncc(N2CCNCC2)n1 [CBK172388G] | 90.7 | – |
| CCC(NS(=O)(=O)c1cc(-n2cccn2)ccc1OC)C1CC(O)C1 (stereo not drawn) [CBK307103] | 106 | – |
| O=[N+]([O-])c1cnc(NCCCn2ccnc2)c([N+](=O)[O-])c1 [CBK262511] | 94.4 | – |
| CC(Oc1ccccc1)c1nnc(SCC(=O)Nc2ccc(Br)cc2F)n1C (stereo not drawn) [CBK266364] | 101 | – |
| COC(=O)c1c(N=C(S)NN2CCN(C)CC2)sc2c1CCC(C)C2 (stereo not drawn) [CBK267125] | 83.9 | – |
| Cc1nc(-c2ccccc2)sc1CNC(=O)C(F)(F)F [CBK092363] | 88.8 | – |
| Cc1nc2c(c(=O)[nH]1)CN(Cc1ccc(F)cc1)CC2 [CBK284009] | 86.9 | – |
